Data set [1] concerns the target T1, fibrinogen receptor, glycoprotein IIb/IIIa (Homo sapiens, UniProt P05106+P08514).
T1 construct: The glycoprotein IIb/IIIa is obtained from Triton X-100 extracts of human blood platelets; from tissue; host or cells: human blood platelets (Triton X-100 extract)
Briefly: inhibition of the binding of fibrinogen to the immobilized fibrinogen receptor, glycoprotein IIb/IIIa (ELISA). Conditions: concentration required to inhibit the binding of fibrinogen to the immobilized receptor by 50%. As for the experimental part:
The glycoprotein IIb/IIIa is obtained from Triton X-100 extracts of human blood platelets and purified by lectin affinity chromatography (Analytical Biochemistry 151, 1985, 169-177) and chromatography on an Arg-Gly-Asp-Ser affinity column (Science 231, 1986, 1559-62). The thus-obtained receptor protein is bonded to microtiter plates. The specific binding of fibrinogen to the immobilized receptor is determined with the aid of an ELISA system ("enzyme-linked immunosorbent assay"). The IC50 values hereinafter correspond to that concentration of the test substance which is required to inhibit the binding of fibrinogen to the immobilized receptor by 50%: […]

A further data set is described as follows: in vivo. The note with it: iv, i.v. in the mouse. The source says:
These compounds have low toxicity.

SMILES strings stand for the structures.

T1 sequence (P08514 32-887 limits assumed): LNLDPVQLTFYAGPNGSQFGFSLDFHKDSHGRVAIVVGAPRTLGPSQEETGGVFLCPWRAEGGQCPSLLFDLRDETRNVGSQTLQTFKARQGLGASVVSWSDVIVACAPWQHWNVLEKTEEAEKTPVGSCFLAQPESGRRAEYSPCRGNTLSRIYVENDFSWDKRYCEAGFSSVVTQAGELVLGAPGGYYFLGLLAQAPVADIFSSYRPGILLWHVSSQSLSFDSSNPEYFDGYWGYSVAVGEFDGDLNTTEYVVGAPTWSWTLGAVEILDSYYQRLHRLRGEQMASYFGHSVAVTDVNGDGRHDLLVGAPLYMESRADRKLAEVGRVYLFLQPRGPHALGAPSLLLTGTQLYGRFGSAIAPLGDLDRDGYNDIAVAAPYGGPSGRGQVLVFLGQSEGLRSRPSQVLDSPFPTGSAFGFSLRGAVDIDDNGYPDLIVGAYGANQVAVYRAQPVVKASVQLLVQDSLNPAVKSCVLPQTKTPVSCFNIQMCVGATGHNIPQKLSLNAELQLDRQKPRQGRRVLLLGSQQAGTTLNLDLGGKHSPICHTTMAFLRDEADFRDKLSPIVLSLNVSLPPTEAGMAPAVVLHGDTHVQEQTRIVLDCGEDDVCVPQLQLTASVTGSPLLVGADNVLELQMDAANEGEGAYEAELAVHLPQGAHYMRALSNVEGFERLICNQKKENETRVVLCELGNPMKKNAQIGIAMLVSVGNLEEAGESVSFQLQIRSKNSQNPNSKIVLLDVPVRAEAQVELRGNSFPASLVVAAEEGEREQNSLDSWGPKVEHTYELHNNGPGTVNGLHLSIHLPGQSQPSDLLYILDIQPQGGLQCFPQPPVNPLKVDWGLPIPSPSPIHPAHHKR
T1 sequence (P08514 891-1039 partner limits assumed): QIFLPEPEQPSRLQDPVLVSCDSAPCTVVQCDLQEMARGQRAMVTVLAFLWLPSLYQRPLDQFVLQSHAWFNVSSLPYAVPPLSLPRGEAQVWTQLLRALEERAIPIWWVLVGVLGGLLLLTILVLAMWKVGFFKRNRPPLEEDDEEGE
T1 sequence (P05106 27-788): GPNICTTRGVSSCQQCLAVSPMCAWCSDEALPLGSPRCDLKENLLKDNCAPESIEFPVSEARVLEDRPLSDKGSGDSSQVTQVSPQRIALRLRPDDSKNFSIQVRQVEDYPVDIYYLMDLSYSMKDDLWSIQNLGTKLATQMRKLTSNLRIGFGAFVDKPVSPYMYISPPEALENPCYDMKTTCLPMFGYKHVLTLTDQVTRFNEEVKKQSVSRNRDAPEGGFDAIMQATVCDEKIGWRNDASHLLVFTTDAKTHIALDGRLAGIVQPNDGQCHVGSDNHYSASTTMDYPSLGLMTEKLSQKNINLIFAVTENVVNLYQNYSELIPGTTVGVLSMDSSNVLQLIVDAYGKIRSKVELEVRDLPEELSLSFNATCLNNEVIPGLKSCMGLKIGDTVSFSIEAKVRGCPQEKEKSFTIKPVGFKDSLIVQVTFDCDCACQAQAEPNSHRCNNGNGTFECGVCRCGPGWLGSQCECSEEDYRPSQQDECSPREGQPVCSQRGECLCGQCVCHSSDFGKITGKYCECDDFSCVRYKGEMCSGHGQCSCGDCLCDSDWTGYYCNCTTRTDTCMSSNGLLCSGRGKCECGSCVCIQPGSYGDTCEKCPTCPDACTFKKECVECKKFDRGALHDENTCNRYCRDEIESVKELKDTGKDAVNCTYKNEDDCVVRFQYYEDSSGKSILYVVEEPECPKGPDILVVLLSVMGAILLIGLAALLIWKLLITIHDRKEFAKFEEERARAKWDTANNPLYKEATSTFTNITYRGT

For orientation: IC50 means the midpoint of a concentration-inhibition curve. In data set [1], `N=C(N)c1ccc(C(=O)NCC(=O)N2CCC(OCC(=O)O)CC2)cc1` [Example 1, [[1-[N-(p-amidinobenzoyl)glycyl]-4-piperidinyl]oxy]acetic acid] yielded an IC50 of 10 µM.

What is called LD50 is the dose expected to kill half of the subjects tested. The low end stands for greater toxicity, the high end for lower toxicity. `C[C@H](NC(=O)c1ccc(C(=N)N)cc1)C(=O)N1CCC(OCC(=O)O)CC1` [Example 3, [[1-[N-(p-amidinobenzoyl)-L-alanyl]-4-piperidinyl]oxy]acetic acid]: in data set [1], the IC50 turned out to be 1.7 µM. In “in vivo”, this compound came in with an LD50 of 250 mg/kg.

On to `C[C@@H](NC(=O)c1ccc(C(=N)N)cc1)C(=O)N1CCC(OCC(=O)O)CC1` [Example 4, [[1-[N-(p-amidinobenzoyl)-D-alanyl]-4-piperidinyl]oxy]acetic acid], for which, in data set [1], the IC50 is 140 µM.

As for `C[C@H](NC(=O)c1ccc(C(=N)N)cn1)C(=O)N1CCC(OCC(=O)O)CC1` [Example 5, [[1-[N-[(5-amidino-2-pyridyl)carbonyl]-L-alanyl]-4-piperidinyl]oxy]acetic acid], the IC50 in data set [1] came out at 1 µM. The LD50 in the data set “in vivo” is 500 mg/kg.

The compound `CC(C)[C@H](NC(=O)c1ccc(C(=N)N)cc1)C(=O)N1CCC(OCC(=O)O)CC1` [Example 6, [[1-[N-(p-amidinobenzoyl)-L-valyl]-4-piperidinyl]oxy]-acetic acid] came in with an IC50 in data set [1] of 27 µM.

In data set [1], `CC(C)C[C@H](NC(=O)c1ccc(C(=N)N)cc1)C(=O)N1CCC(OCC(=O)O)CC1` [Example 7, [[1-[N-(p-amidinobenzoyl)-L-leucyl]-4-piperidinyl]oxy]acetic acid] yielded an IC50 of 33 µM.

As to `N=C(N)c1ccc(C(=O)N[C@@H](Cc2ccc(O)cc2)C(=O)N2CCC(OCC(=O)O)CC2)cc1` [Example 14, [[1-[N-(p-amidinobenzoyl)-L-tyrosil]-4-piperidinyl]oxy]acetic acid], in “in vivo”, the LD50 worked out at 250 mg/kg.

Values taken from patent US5658928A, “Amino acid derivatives” (Hoffmann-La Roche Inc., priority 1991, dated 1997).
